Assays:
[1] = Pharmacokinetic study in rat plasma after oral administration of Flos Chrysanthemi extract (UPLC-MS/MS); type: in vivo, Sprague-Dawley rats; conditions: rats, oral Flos Chrysanthemi extract 10 g/kg; for Detection in plasma over the sampling time: result in words; for AUC(0-inf) / Cmax / Tmax / half-life / AUC / k el: male, Sprague-Dawley, rat; for AUC: read-out: AUC(0 − tn); for k el: read-out: Ke (converted)
Method: Six male Sprague-Dawley rats (250 ± 5 g) were purchased from Huafukang Bioscience Co., Inc. (Beijing, China). The rats were adapted to the facility for a week. Before the experiments, rats were fasted for 12 h, although drinking water was readily accessible. Flos Chrysanthemi extract was dissolved in CMC-Na aqueous solution and orally administered to the animals once at 10 g/kg. Blood samples (220 μL) were taken from the orbital venous plexus of rats at 0, 0.03, 0.08, 0.17, 0.25, 0.5, 1, 2, 4, 6, 8, 10, 12, and 24 h after extract administration. Blood samples were promptly centrifuged at 6000 rpm for 10 min, and plasma samples were collected. The obtained plasma was stored at -80°C until analysis. “Drug and Statistics 3.0” software (Medical College of Wannan, China) was used to calculate pharmacokinetic parameters. The animal protocol was approved by the Animal Ethics Committee of Tianjin University of Traditional Chinese Medicine (TCM-LAEC20190056).
Plasma samples from rats orally administered with Flos Chrysanthemi extract (10.0 g/kg) were analysed with UPLC-MS/MS. Plasma concentration-time curves are shown in Figure 3, and the primary pharmacokinetic parameters of each analyte are summarized in Table 6.

[2] = Stability of analytes in rat plasma (QC samples under four storage conditions); type: in vitro ADME; conditions: n = 6
Method: To study the stability of all compounds in rat plasma, low, medium, and high concentrations of QC samples were tested under the following test conditions: stored at an autosampler for 12 hours, stored at room temperature for 6 hours, put through three freeze/thaw cycles, and stored at -80°C for 14 days. Three QC concentrations were tested for each of the above conditions.
The stability of all 13 analytes during sample collection and processing was evaluated with the various storage conditions being tested on spiked plasma samples at three QC concentrations.

[3] = spiked concentration 1000 ng/mL
[4] = spiked concentration 4000 ng/mL

| Measured concentration, -80°C for 14 days ([2]; spiked concentration 5 ng/mL) [ng/mL] | Measured concentration, Autosampler for 12 h ([2]; spiked concentration 5 ng/mL) [ng/mL] | Measured concentration, Room temperature for 6 h ([2]; spiked concentration 5 ng/mL) [ng/mL] | Measured concentration, Three freeze-thaw cycles ([2]; spiked concentration 5 ng/mL) [ng/mL] | Measured concentration, -80°C for 14 days ([2]; spiked concentration 50 ng/mL) [ng/mL] | Measured concentration, Autosampler for 12 h ([2]; spiked concentration 50 ng/mL) [ng/mL] | Measured concentration, Room temperature for 6 h ([2]; spiked concentration 50 ng/mL) [ng/mL] | Measured concentration, Three freeze-thaw cycles ([2]; spiked concentration 50 ng/mL) [ng/mL] | Measured concentration, -80°C for 14 days [2, 3] [ng/mL] | Measured concentration, Autosampler for 12 h [2, 3] [ng/mL] | Measured concentration, Room temperature for 6 h [2, 3] [ng/mL] | Measured concentration, Three freeze-thaw cycles [2, 3] [ng/mL] | AUC(0-inf) ([1]; plasma, n = 6) [ng·h/mL] | Cmax ([1]; plasma, n = 6) [ng/mL] | Tmax ([1]; plasma, n = 6) [min] | half-life ([1]; plasma, n = 6) [min] | AUC ([1]; plasma, n = 6) [ng·h/mL] | k el ([1]; plasma, n = 6) [s⁻¹] | Compound | Detection in plasma over the sampling time [1] | also measured |
| --- | --- | --- | --- | --- | --- | --- | --- | --- | --- | --- | --- | --- | --- | --- | --- | --- | --- | --- | --- | --- |
| 4.5 ± 0.1 | 5.3 ± 0.1 | 4.6 ± 0.1 | 5.8 ± 0.1 | 50.5 ± 0.7 | 47.8 ± 0.7 | 50.3 ± 0.8 | 50.2 ± 5.7 | 977.4 ± 57.9 | 1030.3 ± 4.9 | 1126.2 ± 9.5 | 1032.7 ± 5.6 | – | – | – | – | – | – | COc1ccc(-c2cc(=O)c3c(O)cc(O)cc3o2)cc1 [Acacetin] | detected only at the first few blood sampling points | – |
| 5.1 ± 0.2 | 4.3 ± 0.1 | 5.9 ± 0.1 | 5.6 ± 0.4 | 51.1 ± 0.4 | 44.5 ± 0.7 | 50.5 ± 1.0 | 53.7 ± 0.6 | 1108.3 ± 25.6 | 1077.6 ± 9.6 | 1086.7 ± 12.9 | 1112.8 ± 7.2 | 1470 ± 614 | 96.4 ± 24.8 | 41.4 ± 29.4 | 832 ± 609 | 1320 ± 489 | 6.94e-05 | O=c1cc(-c2ccc(O)cc2)oc2cc(O[C@@H]3O[C@H](CO)[C@@H](O)[C@H](O)[C@H]3O)cc(O)c12 [Apigenin 7-glucoside] | – | – |
| 5.2 ± 0.1 | 5.4 ± 0.2 | 4.9 ± 0.1 | 5.7 ± 0.1 | 49.3 ± 1.9 | 45.8 ± 1.3 | 49.3 ± 1.1 | 50.5 ± 0.4 | 1063.8 ± 62.8 | 987.0 ± 11.4 | 1112.4 ± 11.7 | 1086.4 ± 17.6 | 3090 ± 447 | 302 ± 87.1 | 30 | 667 ± 426 | 2900 ± 251 | 2.5e-05 | O=c1cc(-c2ccc(O)cc2)oc2cc(O)cc(O)c12 [Apigenin] | – | – |
| 5.2 ± 0.1 | 5.1 ± 0.1 | 5.8 ± 0.1 | 5.8 ± 0.1 | 44.4 ± 0.3 | 43.5 ± 0.7 | 49.7 ± 2.3 | 54.7 ± 0.4 | 1117.1 ± 2.0 | 1084.8 ± 13.6 | 1079.2 ± 8.3 | 1123.5 ± 7.3 | 494 ± 205 | 194 ± 56.4 | – | 12 ± 10.2 | 426 ± 139 | 0.00112 | O=C(/C=C/c1ccc(O)c(O)c1)O[C@@H]1C[C@](O)(C(=O)O)C[C@@H](O)[C@H]1O [Chlorogenic acid] | – | T max ([1]; plasma, n = 6): 15 ± 0 min |
| 5.2 ± 0.2 | 5.0 ± 0.2 | 5.3 ± 0.1 | 5.9 ± 0.1 | 46.7 ± 1.4 | 44.5 ± 1.3 | 49.1 ± 1.5 | 54.1 ± 0.3 | 1075.7 ± 52.9 | 1069.3 ± 16.2 | 1012.9 ± 11.1 | 1122.8 ± 6.8 | 431 ± 197 | 89.4 ± 45.3 | 36.6 ± 19.8 | 414 ± 204 | 319 ± 97.3 | 3.33e-05 | O=C(/C=C/c1ccc(O)c(O)c1)O[C@H]1[C@H](O)C[C@](O)(C(=O)O)C[C@H]1O [Cryptochlorogenic acid] | – | – |
| – | – | – | – | – | – | – | – | – | – | – | – | 19100 ± 20000 | 2550 ± 1120 | 383 ± 228 | 301 ± 266 | 19100 ± 19900 | 7.78e-05 | O=c1cc(-c2ccc(O)c(O)c2)oc2cc(O[C@@H]3O[C@H](CO)[C@@H](O)[C@H](O)[C@H]3O)cc(O)c12 [Cynaroside] | – | Measured concentration, -80°C for 14 days ([2]; spiked concentration 20 ng/mL): 21.1 ± 0.8 ng/mL; Measured concentration, Autosampler for 12 h ([2]; spiked concentration 20 ng/mL): 20.0 ± 0.2 ng/mL; Measured concentration, Room temperature for 6 h ([2]; spiked concentration 20 ng/mL): 20.6 ± 0.9 ng/mL; Measured concentration, Three freeze-thaw cycles ([2]; spiked concentration 20 ng/mL): 22.6 ± 1.0 ng/mL; Measured concentration, -80°C for 14 days ([2]; spiked concentration 200 ng/mL): 205.0 ± 4.0 ng/mL; Measured concentration, Autosampler for 12 h ([2]; spiked concentration 200 ng/mL): 203.4 ± 6.1 ng/mL; Measured concentration, Room temperature for 6 h ([2]; spiked concentration 200 ng/mL): 182.4 ± 0.6 ng/mL; Measured concentration, Three freeze-thaw cycles ([2]; spiked concentration 200 ng/mL): 219.8 ± 1.0 ng/mL; Measured concentration, -80°C for 14 days [2, 4]: 4060.3 ± 121.9 ng/mL; Measured concentration, Autosampler for 12 h [2, 4]: 4158.6 ± 15.3 ng/mL; Measured concentration, Room temperature for 6 h [2, 4]: 4360.1 ± 32.4 ng/mL; Measured concentration, Three freeze-thaw cycles [2, 4]: 4152.9 ± 34.1 ng/mL |
| – | – | – | – | – | – | – | – | – | – | – | – | – | – | – | – | – | – | COc1ccc([C@@H]2CC(=O)c3c(O)cc(O[C@@H]4O[C@H](CO[C@@H]5O[C@@H](C)[C@H](O)[C@@H](O)[C@H]5O)[C@@H](O)[C@H](O)[C@H]4O)cc3O2)cc1O [Hesperidin] | detected only at the first few blood sampling points | Measured concentration, -80°C for 14 days ([2]; spiked concentration 1 ng/mL): 1.1 ± 0.1 ng/mL; Measured concentration, Autosampler for 12 h ([2]; spiked concentration 1 ng/mL): 1.0 ± 0.1 ng/mL; Measured concentration, Room temperature for 6 h ([2]; spiked concentration 1 ng/mL): 1.1 ± 0.1 ng/mL; Measured concentration, Three freeze-thaw cycles ([2]; spiked concentration 1 ng/mL): 1.1 ± 0.1 ng/mL; Measured concentration, -80°C for 14 days ([2]; spiked concentration 10 ng/mL): 9.5 ± 0.2 ng/mL; Measured concentration, Autosampler for 12 h ([2]; spiked concentration 10 ng/mL): 8.8 ± 0.1 ng/mL; Measured concentration, Room temperature for 6 h ([2]; spiked concentration 10 ng/mL): 10.2 ± 0.4 ng/mL; Measured concentration, Three freeze-thaw cycles ([2]; spiked concentration 10 ng/mL): 10.0 ± 0.1 ng/mL; Measured concentration, -80°C for 14 days ([2]; spiked concentration 200 ng/mL): 209.5 ± 2.3 ng/mL; Measured concentration, Autosampler for 12 h ([2]; spiked concentration 200 ng/mL): 222.7 ± 2.0 ng/mL; Measured concentration, Room temperature for 6 h ([2]; spiked concentration 200 ng/mL): 213.7 ± 2.1 ng/mL; Measured concentration, Three freeze-thaw cycles ([2]; spiked concentration 200 ng/mL): 218.3 ± 0.7 ng/mL |
| 4.8 ± 0.2 | 3.9 ± 0.1 | 4.4 ± 0.1 | 5.7 ± 0.1 | 50.3 ± 1.8 | 41.8 ± 1.4 | 48.7 ± 1.9 | 54.5 ± 2.1 | 997.8 ± 19.4 | 803.4 ± 2.5 | – | 1110.2 ± 4.5 | – | – | – | – | – | – | O=c1c(O[C@@H]2O[C@H](CO)[C@H](O)[C@H](O)[C@H]2O)c(-c2ccc(O)c(O)c2)oc2cc(O)cc(O)c12 [Hyperoside] | detected only at the first few blood sampling points | – |
| 5.6 ± 0.1 | 4.6 ± 0.4 | 5.2 ± 0.2 | 5.9 ± 0.1 | 43.3 ± 0.3 | 45.1 ± 0.6 | 48.1 ± 0.8 | 55.3 ± 0.4 | 1080.3 ± 37.8 | 1047.3 ± 12.4 | 1049.2 ± 32.0 | 1052.4 ± 38.4 | 405 ± 228 | 101 ± 73.3 | 24 ± 18.6 | 14.4 ± 13.2 | 309 ± 149 | 0.0013 | O=C(/C=C/c1ccc(O)c(O)c1)O[C@@H]1[C@H](O)C[C@@](O)(C(=O)O)C[C@H]1OC(=O)/C=C/c1ccc(O)c(O)c1 [Isochlorogenic acid C] | – | – |
